pIC50: −log10 of the molar value.

The target of the assay is T1, human chemokine receptor 2 isoform B (Homo sapiens, UniProt P41597).
T1 construct: host or cells: CHOK1-CCR2B-A5 cells (CHO-K1)
T1 sequence (P41597 1-360 isoform P41597-2): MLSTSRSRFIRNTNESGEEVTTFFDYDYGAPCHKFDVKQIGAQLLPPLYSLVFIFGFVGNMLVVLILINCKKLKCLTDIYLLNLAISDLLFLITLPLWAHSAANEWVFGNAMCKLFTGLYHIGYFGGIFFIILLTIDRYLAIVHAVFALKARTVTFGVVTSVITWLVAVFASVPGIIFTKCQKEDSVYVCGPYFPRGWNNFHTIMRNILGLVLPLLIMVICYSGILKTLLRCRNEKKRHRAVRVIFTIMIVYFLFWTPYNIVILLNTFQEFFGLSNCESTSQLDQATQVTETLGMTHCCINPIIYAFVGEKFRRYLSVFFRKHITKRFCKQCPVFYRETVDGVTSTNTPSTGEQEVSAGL
The assay can be described thus: Calcium mobilization assay (FLIPR, antagonist activity against MCP-1). Type of assay: cell-based. Conditions: Ca mobilisation assay, CHOK1-CCR2B-A5 cells, inhibition of calcium increase induced by 20 nM MCP-1. On the procedure:
Calcium Mobilization Assay
CHOK1-CCR2B-A5 cells (from Euroscreen) stably overexpressing the human chemokine receptor 2 isoform B were cultured in Nutrient Hams F12 medium supplemented with 5% FBS, 100 U/ml penicillin, 100 μg/ml streptomycin, 400 μg/ml G418 and 5 μg/ml puromycin.
For the assay cells were grown overnight in 384-well black clear flat bottom polystyrene plates (Costar) at 37° C. at 5% CO2. After washing with DMEM, 20 mM Hepes, 2.5 mM probenecid, 0.1% BSA (DMEM assay buffer) cells were loaded with 4 μM Fluo-4 in the same DMEM assay buffer for 2 hours at 30° C. Excess dye was removed and cells were washed with DMEM assay buffer. 384-well compound plates were prepared with DMEM assay buffer/0.5% DMSO with or without various concentrations of test compounds. Usually compounds were tested for agonist and antagonist activity.
Test compounds were added to the assay plate and agonist activity was monitored as fluorescence for 80 seconds with a FLIPR (488 nm excitation; 510-570 nm emission; Molecular Devices). After 20-30 min. of incubation at 30° C., 20 nM MCP-1 (R&D; Roche) was added and fluorescence was monitored again for 80 seconds. Increases in intracellular calcium are reported as maximum fluorescence after agonist exposure minus basal fluorescence before exposure. Antagonist activity is indicated as inhibitor concentration required for 50% inhibition of specific calcium increases.
In the case of `C[C@H]1C(=O)N(CCC(F)C(=O)N2CCC3(CC3)[C@H](O)C2)CCN1C(=O)Nc1ccc(C(F)(F)F)c(Cl)c1` (single isomer, unassigned) [Example 137, (S)-4-[(R or S)-3-fluoro-4-((S)-4-hydroxy-6-aza-spiro[2.5]oct-6-yl)-4-oxo-butyl]-2-methyl-3-oxo-piperazine-1-carboxylic acid (3-chloro-4-trifluoromethyl-phenyl)-amide], the pIC50 is 7.98.

As to `C[C@H]1C(=O)N(CCC(F)C(=O)N2CCC3(CC3)[C@H](O)C2)CCN1C(=O)Nc1ccc(C(F)(F)F)c(Cl)c1` (single isomer, unassigned) [Example 138, (S)-4-[(S or R)-3-fluoro-4-((S)-4-hydroxy-6-aza-spiro[2.5]oct-6-yl)-4-oxo-butyl]-2-methyl-3-oxo-piperazine-1-carboxylic acid (3-chloro-4-trifluoromethyl-phenyl)-amide], the pIC50 is 8.85.

Turning to `O=C(/C=C/c1ccc(Cl)c(Cl)c1)N1CCC(=O)N(CCC(=O)N2CCC(O)CC2)CC1` [Example 1, 1-[(E)-3-(3,4-Dichloro-phenyl)-acryloyl]-4-[3-(4-hydroxy-piperidin-1-yl)-3-oxo-propyl]-[1,4]diazepan-5-one], the negative logarithm of the IC50 (pIC50) was 5.57.

Consider `COC(=O)C(CC(=O)N1CCC2(CC2)[C@H](O)C1)N1CCN(C(=O)/C=C/c2ccc(Cl)c(Cl)c2)CCC1=O` (stereo partly drawn) [Example 7, (R,S)-2-{4-[(E)-3-(3,4-Dichloro-phenyl)-acryloyl]-7-oxo-[1,4]diazepan-1-yl}-4-((S)-4-hydroxy-6-aza-spiro[2.5]oct-6-yl)-4-oxo-butyric acid methyl ester], for which the negative-log IC50 (pIC50) was 6.34.

`COC(=O)C(CC(=O)N1C[C@@H](C)C[C@H](O)C1)N1CCN(C(=O)/C=C/c2ccc(Cl)c(Cl)c2)CCC1=O` (stereo partly drawn) [Example 9, (R,S)-2-{4-[(E)-3-(3,4-Dichloro-phenyl)-acryloyl]-7-oxo-[1,4]diazepan-1-yl}-4-((3S,5S)-3-hydroxy-5-methyl-piperidin-1-yl)-4-oxo-butyric acid methyl ester]: the pIC50 is 5.63.

In the case of `COC(=O)C(CC(=O)N1CCC2(CC2)[C@H](O)C1)N1CCN(C(=O)/C=C/c2cccc(Cl)c2)CCC1=O` (some centres unmarked) [Example 10], the pIC50 was 6.15.

`O=C(/C=C/c1cccc(Cl)c1)N1CCC(=O)N(C(CO)CC(=O)N2CCC3(CC3)[C@H](O)C2)CC1` (stereo partly drawn) [Example 11, 1-[(E)-3-(3-Chloro-phenyl)-acryloyl]-4-[(R,S)-3-((S)-4-hydroxy-6-aza-spiro[2.5]oct-6-yl)-1-hydroxymethyl-3-oxo-propyl]-[1,4]diazepan-5-one]: the pIC50 is 6.33.

On to `COCC(CC(=O)N1CCC2(CC2)[C@H](O)C1)N1CCN(C(=O)/C=C/c2cccc(Cl)c2)CCC1=O` (stereo partly drawn) [Example 13, 1-[(E)-3-(3-Chloro-phenyl)-acryloyl]-4-[(R,S)-3-((S)-4-hydroxy-6-aza-spiro[2.5]oct-6-yl)-1-methoxymethyl-3-oxo-propyl]-[1,4]diazepan-5-one], for which the pIC50 was 6.11.

In the case of `CN(C)C(=O)[C@@H](CCO)N1CCN(C(=O)/C=C/c2cccc(Cl)c2)CCC1=O` [Example 14, (R)-2-{4-[(E)-3-(3-Chloro-phenyl)-acryloyl]-7-oxo-[1,4]diazepan-1-yl}-4-hydroxy-N,N-dimethyl-butyramide], the pIC50 was 6.04.

On to `C[C@H]1C(=O)N(CCC(=O)N2CCC3(CC3)[C@H](O)C2)CCN1C(=O)Nc1ccc(Cl)c(Cl)c1` [Example 15, (S)-4-[3-((S)-4-Hydroxy-6-aza-spiro[2.5]oct-6-yl)-3-oxo-propyl]-2-methyl-3-oxo-piperazine-1-carboxylic acid (3,4-dichloro-phenyl)-amide], for which the pIC50 is 6.62.

Take `C[C@H]1C(=O)N(CCC(=O)N2CCCCC2)CCN1C(=O)Nc1ccc(Cl)c(Cl)c1` [Example 16, (S)-2-Methyl-3-oxo-4-(3-oxo-3-piperidin-1-yl-propyl)-piperazine-1-carboxylic acid (3,4-dichloro-phenyl)-amide]: the pIC50 is 5.39.

For `C[C@H]1C(=O)N(CCC(=O)N2CCCC(O)C2)CCN1C(=O)Nc1ccc(Cl)c(Cl)c1` (stereo partly drawn) [Example 17, (S)-4-[3-((R,S)-3-Hydroxy-piperidin-1-yl)-3-oxo-propyl]-2-methyl-3-oxo-piperazine-1-carboxylic acid (3,4-dichloro-phenyl)-amide], the pIC50 is 5.50.

Take `C[C@H]1C(=O)N(CCC(=O)N2CCC(C)(O)CC2)CCN1C(=O)Nc1ccc(Cl)c(Cl)c1` [Example 18, (S)-4-[3-(4-Hydroxy-4-methyl-piperidin-1-yl)-3-oxo-propyl]-2-methyl-3-oxo-piperazine-1-carboxylic acid (3,4-dichloro-phenyl)-amide]: the pIC50 is 5.98.

With `C[C@H]1C[C@H](O)CN(C(=O)CCN2CCN(C(=O)Nc3ccc(Cl)c(Cl)c3)[C@@H](C)C2=O)C1` [Example 19, (S)-4-[3-((3S,5S)-3-Hydroxy-5-methyl-piperidin-1-yl)-3-oxo-propyl]-2-methyl-3-oxo-piperazine-1-carboxylic acid (3,4-dichloro-phenyl)-amide], the pIC50 was 5.42.

With `C[C@H]1CCN(C(=O)CCN2CCN(C(=O)Nc3ccc(Cl)c(Cl)c3)[C@@H](C)C2=O)C[C@H]1O` [Example 20, (S)-4-[3-((3S,4S)-3-Hydroxy-4-methyl-piperidin-1-yl)-3-oxo-propyl]-2-methyl-3-oxo-piperazine-1-carboxylic acid (3,4-dichloro-phenyl)-amide], the pIC50 was 5.97.

As to `C[C@H]1C(=O)N(CCC(=O)N2CCOCC2)CCN1C(=O)Nc1ccc(Cl)c(Cl)c1` [Example 22, (S)-2-Methyl-4-(3-morpholin-4-yl-3-oxo-propyl)-3-oxo-piperazine-1-carboxylic acid (3,4-dichloro-phenyl)-amide], the pIC50 is 5.51.

As for `C[C@H]1C(=O)N(CCC(=O)N2CCC(C(F)(F)F)CC2)CCN1C(=O)Nc1ccc(Cl)c(Cl)c1` [Example 24, (S)-2-Methyl-3-oxo-4-[3-oxo-3-(4-trifluoromethyl-piperidin-1-yl)-propyl]-piperazine-1-carboxylic acid (3,4-dichloro-phenyl)-amide], the negative logarithm of the IC50 (pIC50) is 5.50.

Regarding `C[C@H]1C(=O)N(CCCC(=O)N2CCC3(CC3)[C@H](O)C2)CCN1C(=O)Nc1ccc(Cl)c(Cl)c1` [Example 25, (S)-4-[4-((S)-4-Hydroxy-6-aza-spiro[2.5]oct-6-yl)-4-oxo-butyl]-2-methyl-3-oxo-piperazine-1-carboxylic acid (3,4-dichloro-phenyl)-amide], the negative logarithm of the IC50 (pIC50) is 8.44.

Turning to `C[C@H]1C(=O)N(CCCC(=O)N2CCC3(CC3)[C@H](O)C2)CCN1C(=O)Nc1cccc(Cl)c1` [Example 26, (S)-4-[4-((S)-4-Hydroxy-6-aza-spiro[2.5]oct-6-yl)-4-oxo-butyl]-2-methyl-3-oxo-piperazine-1-carboxylic acid (3-chloro-phenyl)-amide], the pIC50 is 7.74.

For the compound `C[C@H]1C(=O)N(CCCC(=O)N2CCC3(CC3)[C@H](O)C2)CCN1C(=O)Nc1ccc(Cl)cc1` [Example 27, (S)-4-[4-((S)-4-Hydroxy-6-aza-spiro[2.5]oct-6-yl)-4-oxo-butyl]-2-methyl-3-oxo-piperazine-1-carboxylic acid (4-chloro-phenyl)-amide], the negative-log IC50 (pIC50) is 7.07.
